Earlier results as cited in patent US5981529A, “Substituted indolylpropyl-piperazine derivatives as 5-HT1D α agonists” (Merck Sharp & Dohme Limited, priority 1995, dated 1999).

Legend:
[1] = system: human 5-HT1Dα and 5-HT1Dβ receptor subtypes; conditions: cf. WO-A-91/17174, Table 1
[2] = therapeutic doses

## CNS(=O)(=O)Cc1ccc2[nH]cc(CCN(C)C)c2c1 [sumatriptan]
[1]
  discrimination between the human 5-HT1Dα and 5-HT1Dβ receptor subtypes: barely discriminates between the human 5-HT1Dα and 5-HT1Dβ receptor subtypes
[2]
  adverse events on administration to humans: certain adverse cardiovascular events
